Assay results reported in patent US20110098352A1, “N,N-DISUBSTITUTED AMINOALKYLBIPHENYL ANTAGONISTS OF PROSTAGLANDIN D2 RECEPTORS” (AMIRA PHARMACEUTICALS, INC., priority 2008, published 2011).

Assays:
human DP2 receptor = biological target: T1, human DP2 receptor (Homo sapiens, UniProt Q9Y5Y4); experiment: DP2/CRTH2 radioligand binding assay using [3H]PGD2; conditions: [3H]PGD2 binding, membranes of HEK293 cells expressing recombinant human DP2; read-out: hDP2
T1 construct: expressed in transfected cells
T1 sequence (Q9Y5Y4 1-395): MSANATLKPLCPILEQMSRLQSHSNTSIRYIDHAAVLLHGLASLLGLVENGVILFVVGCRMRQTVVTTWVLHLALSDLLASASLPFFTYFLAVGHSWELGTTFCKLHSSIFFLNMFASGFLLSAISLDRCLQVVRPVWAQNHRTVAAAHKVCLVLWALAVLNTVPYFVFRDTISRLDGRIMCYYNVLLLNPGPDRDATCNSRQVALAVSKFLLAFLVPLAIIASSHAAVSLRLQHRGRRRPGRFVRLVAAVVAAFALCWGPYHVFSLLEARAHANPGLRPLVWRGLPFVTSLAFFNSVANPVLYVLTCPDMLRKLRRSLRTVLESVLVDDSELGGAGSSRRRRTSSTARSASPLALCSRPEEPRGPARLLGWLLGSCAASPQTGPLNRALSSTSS
Protocol: The ability of a compound to bind to the human DP2 receptor is assessed via a radioligand binding assay using [^3H]PGD2. HEK293 cells stably expressing recombinant human DP2 are resuspended in 10 mM Hepes, 7.4 containing 1 mM DTT, lysed and centrifuged at 75,000×g to pellet the membranes. The membranes are resuspended in 10 mM Hepes, 7.4 containing 1 mM DTT and 10% glycerol to approximately 5 mg protein/ml. Membranes (2-10 μg protein/well) are incubated in 96-well plates with 1 nM [^3H]PGD2 and test compound in Assay Buffer (50 mM Hepes, 10 mM MnCl2, 1 mM EDTA, plus or minus 0.2% human serum albumin, pH 7.4) for 60 minutes at room temperature. The reactions are terminated by rapid filtration through Whatman GF/C glass fibre filter plates. The filter plates were pre-soaked in 0.33% polythylenimine for 30 minutes at room temperature then washed in Wash Buffer (50 mM Hepes, 0.5 M NaCl pH 7.4) prior to harvesting. After harvesting, the filter plates are washed 3 times with 1 ml cold Wash Buffer then dried. Scintillant is then added to the plates and the radioactivity retained on the filters is determined on a Packard TopCount (Perkin Elmer). Specific binding is determined as total radioactive binding minus non-specific binding in the presence of 10 μM PGD2. IC50s were determined using GraphPad prism analysis of drug titration curves.

human DP1 receptor = biological target: T2, human DP1 receptor (Homo sapiens, UniProt Q13258); experiment: DP1 radioligand membrane binding assay using [3H]BWA868C; conditions: [3H]BWA868C binding, human platelet membranes; read-out: hDP1
T2 construct: tissue Biological Specialty Corporation; host or cells: human platelets, membranes
T2 sequence (Q13258 1-359): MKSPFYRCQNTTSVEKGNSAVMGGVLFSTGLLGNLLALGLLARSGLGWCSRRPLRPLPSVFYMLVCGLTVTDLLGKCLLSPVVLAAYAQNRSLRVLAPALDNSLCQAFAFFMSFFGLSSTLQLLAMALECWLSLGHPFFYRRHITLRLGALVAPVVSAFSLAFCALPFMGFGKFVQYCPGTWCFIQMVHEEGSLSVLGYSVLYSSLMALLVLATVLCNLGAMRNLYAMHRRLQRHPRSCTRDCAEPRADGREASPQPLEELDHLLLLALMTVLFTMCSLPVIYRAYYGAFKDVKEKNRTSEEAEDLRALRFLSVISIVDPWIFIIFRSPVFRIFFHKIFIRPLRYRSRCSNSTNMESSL
Protocol: The ability of a compound to bind to the human DP1 receptor was evaluated via a radioligand membrane binding assay using the DP1 selective synthetic ligand [^3H]BWA868C. Packed human platelets (Biological Specialty Corporation), were resuspended in 6 volumes of Hepes/HBSS buffer (10 mM Hepes, 1 mM DTT in Hanks Balanced Salt Solution (HBSS)), lysed and centrifuged at 75,000×g to pellet the membranes. Membranes were resuspended in Hepes/HBSS buffer to approximately 12 mg protein/ml. Membranes (20 μg protein/well) are incubated in 96-well plates with 2 nM [^3H]BWA868C and test compound in Assay Buffer (50 mM Hepes, 10 mM MnCl2, 1 mM EDTA, plus or minus 0.2% human serum albumin, pH 7.4) for 60 minutes at room temperature. The reactions are terminated by rapid filtration through Whatman GF/C glass fibre filter plates. The filter plates were pre-soaked in […] polethylenimine for 30 minutes at room temperature then washed in Wash Buffer (50 mM Hepes, 0.5 M NaCl pH 7.4) prior to harvesting. After harvesting, the filter plates are washed 3 times with 1 ml cold Wash Buffer then dried. Scintillant is then added to the plates and the radioactivity retained on the filters is determined on a Packard TopCount (Perkin Elmer). Specific binding is determined as total radioactive binding minus non-specific binding in the presence of 10 μM BWA868C. IC50s were determined using GraphPad prism analysis of drug titration curves.

[1] = biological target: T3, recombinant human CRTH2 receptor (Homo sapiens, UniProt Q9Y5Y4); experiment: GTPγS binding assay; assay type: biochemical; conditions: +HSA; CHO cell membranes, 80 nM PGD2; read-out: hDP2 GTPγS μM (+HSA)
T3 construct: expressed in transfected cells
T3 sequence (Q9Y5Y4 1-395): T1 sequence (Q9Y5Y4 1-395)
Protocol: The ability of a compound to inhibit binding of GTP to DP2 is assessed via a membrane GTPγS assay. CHO cells stably expressing the recombinant human CRTH2 receptor are resuspended in 10 mM Hepes, 7.4 containing 1 mM DTT, lysed and centrifuged at 75,000×g to pellet the membranes. The membranes are resuspended in 10 mM Hepes, 7.4 containing 1 mM DTT and 10% glycerol. […] The reactions are terminated by rapid filtration through Whatman GF/B glass fibre filter plates. The filter plates are washed 3 times with 1 ml cold Assay Buffer and dried. Scintillant is then added to the plates and the radioactivity retained on the filters is determined on a Packard TopCount (Perkin Elmer). Specific binding is determined as total radioactive binding minus non-specific binding in the absence of the ligand (80 nM PGD2). IC50s were determined using Graphpad prism analysis of drug titration curves.

Compound	IC50 (human DP2 receptor)	IC50 (human DP1 receptor)	IC50 [1]
CCN(Cc1cc(C(F)(F)F)ccc1-c1cc(CC(=O)O)ccc1Cl)C(=O)OCc1ccccc1 [Compound 1-110]	< 300 nM	> 1000 nM	< 0.3 µM
COc1ccc(CC(=O)O)cc1-c1ccc(C(F)(F)F)cc1CN(C(=O)OCc1ccccc1)C1CCCC1 [Compound 1-35, {2′-[(Benzyloxycarbonyl-cyclopentyl-amino)-methyl]-6-methoxy-4′-trifluoromethyl-biphenyl-3-yl}-acetic acid]	< 300 nM	300 to 1000 nM	< 0.3 µM
CCOc1ccc(CC(=O)O)cc1-c1ccc(C(F)(F)F)cc1CN(CC)C(=O)OCc1ccccc1 [Compound 1-129]	< 300 nM	> 1000 nM	< 0.3 µM
COc1ccc(CC(=O)O)cc1-c1ccc(C(F)(F)F)cc1CN(C(C)=O)C1CCCC1 [Compound 1-31, {2′-[(Acetyl-cyclopentyl-amino)-methyl]-6-methoxy-4′-trifluoromethyl-biphenyl-3-yl}-acetic acid]	< 300 nM	> 1000 nM	< 0.3 µM
CCN(Cc1cc(C(F)(F)F)ccc1-c1cc(CC(=O)O)ccc1OC)C(=O)C(C)(C)Oc1ccc(Cl)cc1 [Compound 1-118, [2′-({[2-(4-Chloro-phenoxy)-2-methyl-propionyl]-ethyl-amino}-methyl)-6-methoxy-4′-trifluoromethyl-biphenyl-3-yl]-acetic acid]	< 300 nM	> 1000 nM	< 0.3 µM
CCN(Cc1cc(C(F)(F)F)ccc1-c1cc(CC(=O)O)ccc1OC)C(=O)OCc1cccc(Cl)c1 [Compound 1-43, (2′-{[(3-Chloro-benzyloxycarbonyl)-ethyl-amino]-methyl}-6-methoxy-4′-trifluoromethyl-biphenyl-3-yl)-acetic acid]	< 300 nM	> 1000 nM	< 0.3 µM
COc1ccc(CC(=O)O)cc1-c1ccc(C(F)(F)F)cc1CN(C(C)=O)C1CCC1 [Compound 1-30, {2′-[(Acetyl-cyclobutyl-amino)-methyl]-6-methoxy-4′-trifluoromethyl-biphenyl-3-yl}-acetic acid]	< 300 nM	> 1000 nM	< 0.3 µM
COc1ccc(CC(=O)O)cc1-c1ccc(C(F)(F)F)cc1CN(C)C(C)=O [Compound 1-1, {2′-[(Acetyl-methyl-amino)-methyl]-6-methoxy-4′-trifluoromethyl-biphenyl-3-yl}-acetic acid]	< 300 nM	> 1000 nM	< 0.3 µM
COc1ccc(CC(=O)O)cc1-c1ccc(C(F)(F)F)cc1CN(C(C)=O)C1CC1 [Compound 1-12, {2′-[(Acetyl-cyclopropyl-amino)-methyl]-6-methoxy-4′-trifluoromethyl-biphenyl-3-yl}-acetic acid]	< 300 nM	> 1000 nM	< 0.3 µM
CCN(Cc1cc(C(F)(F)F)ccc1-c1cc(CC(=O)O)ccc1OC)C(=O)C(C)Oc1ccccc1 (stereo not drawn) [Compound 1-45, (2′-{[Ethyl-(2-phenoxy-propionyl)-amino]-methyl}-6-methoxy-4′-trifluoromethyl-biphenyl-3-yl)-acetic acid]	< 300 nM	> 1000 nM	< 0.3 µM
CC(=O)N(Cc1cc(C(F)(F)F)ccc1-c1cc(CC(=O)O)ccc1F)CC(F)(F)F [Compound 1-11, (2′-{[Acetyl-(2,2,2-trifluoro-ethyl)-amino]-methyl}-6-fluoro-4′-trifluoromethyl-biphenyl-3-yl)-acetic acid]	< 300 nM	> 1000 nM	< 0.3 µM
CCN(Cc1cc(C(F)(F)F)ccc1-c1cc(CC(=O)O)ccc1OC)C(=O)COc1ccccc1 [Compound 1-48, (2′-{[Ethyl-(2-phenoxy-acetyl)-amino]-methyl}-6-methoxy-4′-trifluoromethyl-biphenyl-3-yl)-acetic acid]	< 300 nM	> 1000 nM	< 0.3 µM
CCN(Cc1cc(C(F)(F)F)ccc1-c1cc(CC(=O)O)ccc1OC)C(C)=O [Compound 1-2, {2′-[(Acetyl-ethyl-amino)-methyl]-6-methoxy-4′-trifluoromethyl-biphenyl-3-yl}-acetic acid]	< 300 nM	> 1000 nM	< 0.3 µM
CCN(Cc1cc(C(F)(F)F)ccc1-c1cc(CC(=O)O)ccc1OC)C(=O)OCc1ccc(Cl)cc1 [Compound 1-42, (2′-{[(4-Chloro-benzyloxycarbonyl)-ethyl-amino]-methyl}-6-methoxy-4′-trifluoromethyl-biphenyl-3-yl)-acetic acid]	< 300 nM	> 1000 nM	< 0.3 µM
CN(Cc1cc(C(F)(F)F)ccc1-c1cc(CC(=O)O)ccc1F)C(=O)OCc1ccccc1 [Compound 1-29, {2′-[(Benzyloxycarbonyl-methyl-amino)-methyl]-6-fluoro-4′-trifluoromethyl-biphenyl-3-yl}-acetic acid]	< 300 nM	> 1000 nM	< 0.3 µM
CCN(Cc1cc(C(F)(F)F)ccc1-c1cc(CC(=O)O)ccc1F)C(C)=O [Compound 1-10, {2′-[(Acetyl-ethyl-amino)-methyl]-6-fluoro-4′-trifluoromethyl-biphenyl-3-yl}-acetic acid]	< 300 nM	> 1000 nM	< 0.3 µM
CCN(Cc1cc(C(F)(F)F)ccc1-c1cc(CC(=O)O)ccc1OC)C(=O)OC [Compound 1-23, {2′-[(Ethyl-methoxycarbonyl-amino)-methyl]-6-methoxy-4′-trifluoromethyl-biphenyl-3-yl}-acetic acid]	< 300 nM	> 1000 nM	< 0.3 µM
CCN(Cc1cc(C(F)(F)F)ccc1-c1cc(CC(=O)O)ccc1OC)C(=O)C(F)(F)F [Compound 1-32, (2′-{[Ethyl-(2,2,2-trifluoro-acetyl)-amino]-methyl}-6-methoxy-4′-trifluoromethyl-biphenyl-3-yl)-acetic acid]	< 300 nM	> 1000 nM	< 0.3 µM
CCN(Cc1cc(C(F)(F)F)ccc1-c1cc(CC(=O)O)ccc1OC)C(=O)COCc1ccccc1 [Compound 1-92, (2′-{[(2-Benzyloxy-acetyl)-ethyl-amino]-methyl}-6-methoxy-4′-trifluoromethyl-biphenyl-3-yl)-acetic acid]	< 300 nM	> 1000 nM	< 0.3 µM
